This is an account of results in patent publication EP1057484A1, “CELL DEATH INHIBITORS” (priority 1998, dated 1999).

The test system of one experiment is Porcine ovarian granulosa cells (POGC). The experiment is described as follows: Test Example 1: inhibition of SNP-induced apoptosis of porcine ovarian granulosa cells. The experiment is classed as cell-based. The following applies: Sus scrofa; for complete inhibition of apoptosis; SNP 0.5 mM; cells observed after 48 hours; read-out: Minimum effective concentration. From the text:
Porcine ovarian granulosa cells (POGC) were isolated from porcine ovaries and cultured following to a known method (Endocrinology, Vol. 136, p. 3470, 1995). Namely, porcine ovaries were rinsed with PBS buffer, and POGC were collected by aspiration from antral follicles with a syringe. Cell fraction was recovered as a precipitate by centrifugation of the suspension. The operation of suspending the cell fraction into PBS buffer and subjecting the resulting suspension to centrifugation was repeated three times to wash the cells. The POGC obtained as a precipitate were suspended again into a culture medium (DMEM containing 10% fetal bovine serum) and cell clumps were disrupted by pipetting. The cell suspension was passed through a mesh to remove contaminating tissue fragments, and then pipetted in 24-well plates for cell culture. The cell suspension was cultured for 2 days in a CO2 incubator according to a conventional procedure (37°C, 5% CO2). Then, the medium was refreshed to remove floating cells and the culture was continued for further 2 to 3 days until the cells reached subconfluency (0.7 to 2 × 10^5 cell/well). After the attaching cells were washed with serum-free medium, they were cultured in a serum-free DMEM (containing 5 µg/mL of transferrin, and 40 ng/mL of hydrocortisone, 4 mg/mL of bovine serum albumin (BSA), 100 nM androstendione).
The cell death was also confirmed by MTT assay. […] The results are shown in Table 1 where a minimum effective concentration of each compound for complete inhibition of apoptosis is described.
Regarding `Cc1ccc2c(c1)c(C1=C(Br)C(=O)N(C)C1=O)cn2C(=O)OC(C)(C)C` [Compound 6], the minimal effective concentration amounted to 3 µM.
For the compound `Cc1ccc2[nH]cc(C3=C(Br)C(=O)N(C)C3=O)c2c1` [Compound 3], the minimal effective concentration came out at 3 µM.
The same measure, in the same setting: the same measure for `CN1C(=O)C(Br)=C(c2cn(C(=O)OC(C)(C)C)c3ccccc23)C1=O` [Compound 2]: 10 µM; for `CN1C(=O)C(Br)=C(c2c[nH]c3ccc(Cl)cc23)C1=O` [Compound 5]: 15 µM.
Consider `Cc1cccc2c(C3=C(Br)C(=O)N(C)C3=O)cn(C(=O)OC(C)(C)C)c12` [Compound 7], for which the minimal effective concentration was 7 µM.
With `Cc1cccc2c(C3=C(Br)C(=O)N(C)C3=O)c[nH]c12` [Compound 4], the minimal effective concentration came to 10 µM.
The same measure, in the same setting: the same measure for `CN1C(=O)C(Br)=C(c2cn(C(=O)OC(C)(C)C)c3ccc(Cl)cc23)C1=O` [Compound 8]: 7 µM.

Staying with this experiment, now noted: Sus scrofa; for complete inhibition of apoptosis; SNP 0.5 mM; judged at 18 hours after SNP treatment; read-out: Minimum effective concentration.
Regarding `CN1C(=O)C(Br)=C(c2cn(C)c3ccccc23)C1=O` [Compound 9, 2-bromo-3-(1-methyl-1H-indol-3-yl)-N-methylmaleimide], the minimal effective concentration worked out at 15 µM.
As for `CN1C(=O)C(Br)=C(c2c[nH]c3ccccc23)C1=O` [Compound 1, 2-bromo-3-(1H-indol-3-yl)-N-methylmaleimide], the minimal effective concentration worked out at 15 µM.

Staying with this experiment, now noted: Sus scrofa; for complete inhibition of apoptosis; SNP 0.5 mM; judged at 35 hours after SNP treatment; read-out: Minimum effective concentration.
Consider `CCCCCCCn1cc(C2=C(Br)C(=O)N(C)C2=O)c2ccccc21` [Compound 10], for which the minimal effective concentration was determined as 3 µM.

Another experiment deals with Porcine Ovarian Granulosa Cells. The experiment is described as follows: Test Example 7: inhibition of SNP-induced apoptosis of undifferentiated POGC. The experiment is classed as cell-based. The following applies: Sus scrofa; for complete inhibition of apoptosis; SNP 0.5 mM; cells observed after 48 hours; read-out: Minimum effective concentration.
Consider `CN1C(=O)C(c2c[nH]c3ccccc23)=C(c2c[nH]c3ccc(Cl)cc23)C1=O` [Compound 24], for which the minimal effective concentration came to 3 µM.
In the case of `CN1C(=O)C(c2c[nH]c3ccccc23)C(c2c[nH]c3ccccc23)C1=O` (stereo not shown) [Compound 30], the minimal effective concentration stood at 10 µM.
Take `CN1C(=O)C(c2c[nH]c3ccccc23)=C(c2c[nH]c3ccccc23)C1O` (stereo not shown) [Compound 16]: the minimal effective concentration worked out at 5 µM.
Regarding `O=C1C(c2c[nH]c3ccccc23)=C(c2c[nH]c3ccccc23)C(=O)N1O` [Compound 12], the minimal effective concentration is 15 µM.
On the same count and under the same terms, for `CN1C(=O)C(c2c[nH]c3ccccc23)=C(c2cn(CCCNC(=O)c3ccccc3)c3ccccc23)C1=O` [Compound 21] the value was 7 µM; for `CN1C(=O)C(c2c[nH]c3ccccc23)=C(c2cn(C(=O)OC(C)(C)C)c3ccccc23)C1=O` [Compound 22], 5 µM; for `Cn1cc(C2=C(c3cn(CCCN)c4ccccc34)C(=O)NC2=O)c2ccccc21` [Compound 26], 1 µM.
Same read-out and setting: the same measure for `O=C1NC(=O)C(c2c[nH]c3ccccc23)=C1c1c[nH]c2ccccc12` [Compound 13]: 5 µM; for `N=C(N)SCCCn1cc(C2=C(c3c[nH]c4ccccc34)C(=O)NC2=O)c2ccccc21` [Compound 27]: 1 µM; for `CN1C(=O)C(c2cn(C(=O)OC(C)(C)C)c3ccccc23)=C(c2cn(C(=O)OC(C)(C)C)c3ccccc23)C1=O` [Compound 23]: 5 µM.
Still for that read-out and setting: the same measure for `CCCN1C(=O)C(c2c[nH]c3ccccc23)=C(c2c[nH]c3ccccc23)C1=O` [Compound 15]: 3 µM.

Still in this experiment, the particulars now being: Sus scrofa; for complete inhibition of apoptosis; SNP 0.5 mM; judged at 18 hours after SNP treatment; read-out: Minimum effective concentration.
Take `CN1C(=O)C(c2cn(C)c3ccccc23)=C(c2cn(C)c3ccccc23)C1=O` [Compound 36]: the minimal effective concentration came out at 10 µM.
For the compound `O=C1C(c2c[nH]c3ccccc23)=C(c2c[nH]c3ccccc23)C(=O)N1Cc1ccccc1` [Compound 49], the minimal effective concentration was determined as 1 µM.
Same read-out and setting: for `Cc1ccc2c(C3=C(c4c[nH]c5cc(C)ccc45)C(=O)N(C)C3=O)c[nH]c2c1` [Compound 38] the value was 0.3 µM; for `CN(C)CC1CCn2c(c(C3=C(c4cn(C)c5ccccc45)C(=O)NC3=O)c3ccccc32)C1` (stereo not shown) [Compound 29], 1 µM.
As for `c1ccc(N2CC(c3c[nH]c4ccccc34)C(c3c[nH]c4ccccc34)C2)cc1` (stereo not shown) [Compound 34], the minimal effective concentration was determined as 0.3 µM.
Take `Cc1cccc2c(C3=C(c4c[nH]c5ccccc45)C(=O)N(C)C3=O)c[nH]c12` [Compound 39]: the minimal effective concentration is 3 µM.
On the same count and under the same terms, for `O=C1C(c2c[nH]c3ccccc23)=C(c2c[nH]c3ccccc23)C(=O)N1c1ccccc1` [Compound 48] the value was 1 µM; for `CN1C(=O)C(c2c[nH]c3ccc(Br)cc23)=C(c2c[nH]c3ccc(Br)cc23)C1=O` [Compound 42], 1 µM; for `Cc1ccc2[nH]cc(C3=C(c4c[nH]c5ccc(C)cc45)C(=O)N(C)C3=O)c2c1` [Compound 40], 1 µM.
The same measure, in the same setting: for `COc1ccc2[nH]cc(C3=C(c4c[nH]c5ccc(OC)cc45)C(=O)N(C)C3=O)c2c1` [Compound 44] the value was 1 µM; for `Cc1[nH]c2ccccc2c1C1=C(c2c[nH]c3ccccc23)C(=O)N(C)C1=O` [Compound 46], 10 µM; for `CN1C(=O)C(c2c[nH]c3ccc(F)cc23)=C(c2c[nH]c3ccc(F)cc23)C1=O` [Compound 41], 10 µM.
As to `CN1C(=O)C(c2c[nH]c3ccccc23)=C(c2c[nH]c3ccc(Cl)cc23)C1=O` [Compound 43], the minimal effective concentration is 3 µM.
As for `CN1C(=O)C(c2c[nH]c3ccccc23)C(c2cn(CCCN)c3ccccc23)C1=O` (stereo not shown) [Compound 33], the minimal effective concentration worked out at 10 µM.
Still for that read-out and setting: for `Cc1[nH]c2ccccc2c1C1=C(c2c(C)[nH]c3ccccc23)C(=O)N(C)C1=O` [Compound 47] the value was 10 µM; for `COc1cccc2[nH]cc(C3=C(c4c[nH]c5cccc(OC)c45)C(=O)N(C)C3=O)c12` [Compound 45], 3 µM; for `CN(C)CCCn1cc(C2=C(c3cn(CCCN(C)C)c4ccccc34)C(=O)N(C)C2=O)c2ccccc21` [Compound 37], 10 µM.
On to `CN1C(=O)C(c2c[nH]c3ccccc23)=C(c2cn(C)c3ccccc23)C1=O` [Compound 35], for which the minimal effective concentration is 10 µM.
Same read-out and setting: the same measure for `CN1CCCC1CCn1cc(C2=C(c3c[nH]c4ccccc34)C(=O)NC2=O)c2ccccc21` (stereo not shown) [Compound 28]: 3 µM.

Staying with this experiment, now noted: Sus scrofa; for complete inhibition of apoptosis; SNP 0.5 mM; judged at 30 hours after SNP treatment; read-out: Minimum effective concentration.
In the case of `O=C1OC(=O)C(c2c[nH]c3ccccc23)=C1c1c[nH]c2ccccc12` [Compound 11], the minimal effective concentration stood at 10 µM.
Still for that read-out and setting: for `NCCCn1cc(C2=C(c3c[nH]c4ccccc34)C(=O)NC2=O)c2ccccc21` [Compound 17] the value was 3 µM; for `CCN(CC)c1ccc2c(-c3ccc(S(=O)(=O)NCCCn4cc(C5=C(c6cn(C)c7ccccc67)C(=O)NC5=O)c5ccccc54)cc3S(=O)(=O)[O-])c3ccc(=[N+](CC)CC)cc-3oc2c1` [Compound 31], 3 µM.

The next experiment relates to 4B2 cells. Nature of the experiment: Test Example 9: SNP-induced apoptosis of 4B2 granulosa cell line. The class given is cell-based. The following applies: Mus musculus; 10 µM added prior to SNP (0.5 mM); observation after 24 hours; read-out: cells alive. The procedure:
Mouse granulosa cells were transfected with SV40 T antigen and cDNA of steroidogenic factor-1 (SF-1/Ad4BP) to establish a cell line, named 4B2. The cell secretes progesterone in response to protein kinase-A. The 4B2 cells were cultured in 48-well culture plates until subconfluency in DMEM containing 10% fetal bovine serum in a CO2 incubator according to a conventional manner. After the medium was switched to DMEM containing 2% fetal bovine serum, SNP (0.5 mM) was added thereto. […] Then, prior to the addition of SNP, Test Compound 13, 14, 17, 20, 24 or 25 (10 µM each) was added to the present medium and observations on cells were made after 24 hours.
For the compound `CN1C(=O)C(c2c[nH]c3ccccc23)=C(c2c[nH]c3ccc(Cl)cc23)C1=O` [Compound 24], the viability at 10 µM was above 95%.
As to `O=C1NC(=O)C(c2c[nH]c3ccccc23)=C1c1c[nH]c2ccccc12` [Compound 13], the viability at 10 µM is above 95%.
Take `NCCCn1cc(C2=C(c3c[nH]c4ccccc34)C(=O)NC2=O)c2ccccc21` [Compound 17]: the viability at 10 µM is above 95%.
